Legend:
Type in all cases: in vivo
[1] = test system: Surinam grass (Brachiaria decumbens); experiment: Test B postemergence; conditions: 13 to 15 days
Procedure, shortened: (§1)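 Visual injury scores, 0 = no effect to 100 = complete control, assigned against controls after 13 to 15 days in the greenhouse. Compounds formulated in non-phytotoxic solvent plus surfactant and applied to soil after planting (pre) or onto foliage of 1- to 4-leaf plants (post).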

[2] = test system: barnyardgrass (Echinochloa crus-galli); experiment: Test B postemergence; conditions: 13 to 15 days
Procedure, shortened: as §1

[3] = test system: blackgrass (Alopecurus myosuroides); experiment: Test B postemergence; conditions: 13 to 15 days
Procedure, shortened: as §1

[4] = test system: cocklebur (Xanthium strumarium); experiment: Test B postemergence; conditions: 13 to 15 days
Procedure, shortened: as §1

corn (Zea mays) [5] = experiment: Test B postemergence; conditions: 13 to 15 days
Procedure, shortened: as §1

[6] = test system: crabgrass (Digitaria sanguinalis); experiment: Test B postemergence; conditions: 13 to 15 days
Procedure, shortened: as §1

[7] = test system: giant foxtail (Setaria faberii); experiment: Test B postemergence; conditions: 13 to 15 days
Procedure, shortened: as §1

[8] = test system: lambsquarters (Chenopodium album); experiment: Test B postemergence; conditions: 13 to 15 days
Procedure, shortened: as §1

[9] = test system: morning glory (Ipomoea hederacea); experiment: Test B postemergence; conditions: 13 to 15 days
Procedure, shortened: as §1

[10] = test system: pigweed (Amaranthus retroflexus); experiment: Test B postemergence; conditions: 13 to 15 days
Procedure, shortened: as §1

[11] = test system: velvetleaf (Abutilon theophrasti); experiment: Test B postemergence; conditions: 13 to 15 days
Procedure, shortened: as §1

[12] = test system: wheat (Triticum aestivum); experiment: Test B postemergence; conditions: 13 to 15 days
Procedure, shortened: as §1

wild oat (Avena fatua) = experiment: Test B postemergence; conditions: 13 to 15 days
Procedure, shortened: as §1

[13] = test system: Surinam grass (Brachiaria decumbens); experiment: Test B preemergence
Procedure, shortened: as §1

[14] = test system: barnyardgrass (Echinochloa crus-galli); experiment: Test B preemergence
Procedure, shortened: as §1

[15] = test system: cocklebur (Xanthium strumarium); experiment: Test B preemergence
Procedure, shortened: as §1

corn (Zea mays) [16] = experiment: Test B preemergence
Procedure, shortened: as §1

[17] = test system: crabgrass (Digitaria sanguinalis); experiment: Test B preemergence
Procedure, shortened: as §1

[18] = test system: giant foxtail (Setaria faberii); experiment: Test B preemergence
Procedure, shortened: as §1

[19] = test system: lambsquarters (Chenopodium album); experiment: Test B preemergence
Procedure, shortened: as §1

[20] = test system: morning glory (Ipomoea hederacea); experiment: Test B preemergence
Procedure, shortened: as §1

[21] = test system: pigweed (Amaranthus retroflexus); experiment: Test B preemergence
Procedure, shortened: as §1

rice (Oryza saliva) = experiment: Test B preemergence
Procedure, shortened: as §1

[22] = test system: velvetleaf (Abutilon theophrasti); experiment: Test B preemergence
Procedure, shortened: as §1

[23] = test system: smallflower flatsedge (Cyperus difformis); experiment: Test C flooded paddy test; conditions: for Flatsedge plant response rating: Flooded Paddy, scale 0 to 100, 0 no effect, 100 complete control; for Plant response rating, Flatsedge: flooded paddy test, scale 0 to 100 (0 no effect, 100 complete control)
Procedure, shortened: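 Response on a 0-to-100 scale (no effect to complete control) was assessed by eye versus controls. Plants had reached 2 leaves when treated in flooded paddy conditions. The assessment took place after 12–14 days of greenhouse growth.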

Nightshade = experiment: Test C preemergence; conditions: Rate 250 g/ha, visual evaluation after 12 to 14 days
Sunflower = experiment: Test C preemergence; conditions: Rate 250 g/ha, visual evaluation after 12 to 14 days
[24] = Rate 125 g/ha, scale 0 (no effect) to 100 (complete control)
[25] = Rate 500 g/ha, scale 0 to 100, 0 is no effect, 100 is complete control
[26] = Preemergence, Rate 500 g/ha, scale 0 to 100, 0 no effect, 100 complete control
[27] = preemergence, Rate 125 g/ha, scale 0 to 100, 0 no effect, 100 complete control
[28] = preemergence, Rate 125 g/ha, scale of 0 to 100 where 0 is no effect and 100 is complete control, 13 to 15 days

Structure (SMILES): O=C1C(n2ccc(C3CCC3)n2)SCN1c1cccc(OC(F)F)c1 (centres unmarked) [Compound 45]
- Plant response rating, Surinam grass [1, 24]: 0
- Plant response rating, Surinam grass [1, 25]: 0
- Plant response rating, Barnyardgrass [2, 24]: 30
- Plant response rating, Barnyardgrass [2, 25]: 100
- Plant response rating, Blackgrass [3, 24]: 0
- Plant response rating, Blackgrass [3, 25]: 0
- Plant response rating, Cocklebur [4, 24]: 20
- Plant response rating, Cocklebur [4, 25]: 40
- Plant response rating, Corn (corn (Zea mays) [5]; [24]): 0
- Plant response rating, Corn (corn (Zea mays) [5]; [25]): 0
- Plant response rating, Crabgrass [6, 24]: 0
- Plant response rating, Crabgrass [6, 25]: 0
- Plant response rating, Foxtail, Giant [7, 24]: 0
- Plant response rating, Foxtail, Giant [7, 25]: 0
- Plant response rating, Lambsquarters [8, 24]: 0
- Plant response rating, Lambsquarters [8, 25]: 0
- Plant response rating, Morningglory [9, 24]: 0
- Plant response rating, Morningglory [9, 25]: 0
- Plant response rating, Pigweed [10, 24]: 0
- Plant response rating, Pigweed [10, 25]: 0
- Plant response rating, Velvetleaf [11, 24]: 0
- Plant response rating, Velvetleaf [11, 25]: 0
- Plant response rating, Wheat [12, 24]: 0
- Plant response rating, Wheat [12, 25]: 0
- Plant response rating, Wild Oat (wild oat (Avena fatua); [24]): 0
- Plant response rating, Wild Oat (wild oat (Avena fatua); [25]): 0
- Plant response rating, Surinam grass [13, 26]: 80
- Plant response rating, Surinam grass [13, 27]: 70
- Plant response rating, Barnyardgrass [14, 26]: 100
- Plant response rating, Barnyardgrass [14, 27]: 80
- Plant response rating, Cocklebur [15, 26]: 0
- Plant response rating, Cocklebur [15, 27]: 0
- Plant response rating, Corn (corn (Zea mays) [16]; [26]): 0
- Plant response rating, Corn (corn (Zea mays) [16]; [27]): 0
- Plant response rating, Crabgrass [17, 26]: 100
- Plant response rating, Crabgrass [17, 27]: 30
- Plant response rating, Foxtail, Giant [18, 26]: 100
- Plant response rating, Foxtail, Giant [18, 27]: 100
- Plant response rating, Lambsquarters [19, 26]: 100
- Plant response rating, Lambsquarters [19, 27]: 100
- Plant response rating, Morningglory [20, 26]: 0
- Plant response rating, Pigweed [21, 26]: 100
- Plant response rating, Rice (rice (Oryza saliva); [26]): 60
- Plant response rating, Velvetleaf [22, 26]: 0
- Flatsedge plant response rating ([23]; Rate 250 g/ha): 100
- Flatsedge plant response rating ([23]; Rate 500 g/ha): 100
- Plant response rating, Flatsedge ([23]; Rate 62 g/ha): 90
- Plant response rating, Flatsedge ([23]; Rate 125 g/ha): 100
- Plant response rating (0 to 100), Nightshade (Nightshade): 0
- Plant response rating (0 to 100), Sunflower (Sunflower): 20

Structure (SMILES): CC(C)(C)c1ccn(C2CCN(c3cccc(OC(F)(F)F)c3)C2=O)n1 (centres unmarked) [Compound 49]
- Plant response rating, Surinam grass [1, 24]: 0
- Plant response rating, Surinam grass [1, 25]: 90
- Plant response rating, Barnyardgrass [2, 24]: 0
- Plant response rating, Barnyardgrass [2, 25]: 80
- Plant response rating, Blackgrass [3, 24]: 0
- Plant response rating, Blackgrass [3, 25]: 60
- Plant response rating, Cocklebur [4, 24]: 0
- Plant response rating, Cocklebur [4, 25]: 30
- Plant response rating, Corn (corn (Zea mays) [5]; [24]): 0
- Plant response rating, Corn (corn (Zea mays) [5]; [25]): 0
- Plant response rating, Crabgrass [6, 24]: 0
- Plant response rating, Crabgrass [6, 25]: 40
- Plant response rating, Foxtail, Giant [7, 24]: 0
- Plant response rating, Foxtail, Giant [7, 25]: 0
- Plant response rating, Lambsquarters [8, 24]: 30
- Plant response rating, Lambsquarters [8, 25]: 50
- Plant response rating, Morningglory [9, 24]: 0
- Plant response rating, Morningglory [9, 25]: 30
- Plant response rating, Pigweed [10, 24]: 30
- Plant response rating, Pigweed [10, 25]: 30
- Plant response rating, Velvetleaf [11, 24]: 0
- Plant response rating, Velvetleaf [11, 25]: 40
- Plant response rating, Wheat [12, 24]: 0
- Plant response rating, Wheat [12, 25]: 0
- Plant response rating, Wild Oat (wild oat (Avena fatua); [24]): 0
- Plant response rating, Wild Oat (wild oat (Avena fatua); [25]): 30
- Plant response rating, Surinam grass [13, 26]: 0
- Plant response rating, Surinam grass [13, 28]: 0
- Plant response rating, Barnyardgrass [14, 26]: 100
- Plant response rating, Barnyardgrass [14, 28]: 100
- Plant response rating, Cocklebur [15, 26]: 0
- Plant response rating, Cocklebur [15, 28]: 0
- Plant response rating, Corn (corn (Zea mays) [16]; [26]): 0
- Plant response rating, Corn (corn (Zea mays) [16]; [28]): 0
- Plant response rating, Crabgrass [17, 26]: 0
- Plant response rating, Crabgrass [17, 28]: 0
- Plant response rating, Foxtail, Giant [18, 26]: 90
- Plant response rating, Foxtail, Giant [18, 28]: 0
- Plant response rating, Lambsquarters [19, 26]: 100
- Plant response rating, Lambsquarters [19, 28]: 100
- Plant response rating, Morningglory [20, 26]: 30
- Plant response rating, Morningglory [20, 28]: 0
- Plant response rating, Pigweed [21, 26]: 100
- Plant response rating, Pigweed [21, 28]: 100
- Plant response rating, Rice (rice (Oryza saliva); [26]): 20
- Plant response rating, Rice (rice (Oryza saliva); [28]): 0
- Plant response rating, Velvetleaf [22, 26]: 0
- Plant response rating, Velvetleaf [22, 28]: 0
- Flatsedge plant response rating ([23]; Rate 250 g/ha): 100
- Flatsedge plant response rating ([23]; Rate 500 g/ha): 100
- Plant response rating, Flatsedge ([23]; Rate 62 g/ha): 100
- Plant response rating, Flatsedge ([23]; Rate 125 g/ha): 100
- Plant response rating (0 to 100), Nightshade (Nightshade): 50
- Plant response rating (0 to 100), Sunflower (Sunflower): 30
